Data as given in patent US20200069691A1, “HETEROCYCLIC COMPOUNDS AS HIV PROTEASE INHIBITORS” (Merck Sharp & Dohme Corp., priority 2016, published 2020).

Molecular target: T1, wild-type HIV-1 protease (Human immunodeficiency virus type 1 group M subtype B, UniProt P04585)
T1 construct: Escherichia coli expressed wild-type HIV-1 protease protein
Experiment: Assay for Inhibition of Microbial Expressed HIV Protease (peptide substrate cleavage, LC-MS/MS readout)
Type: biochemical
Settings: E. coli expressed wild-type HIV-1 protease, mean of at least two independent experiments, read-out: HIV Pr Enzyme HIV1 PR IC50
In short: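 Cleavage of Val-Ser-Gln-Asn-(β-naphthyl)Ala-Pro-Ile-Val (400 μM) by recombinant HIV-1 protease ([…]) ran 1 h at 30 °C after a 30 min room-temperature inhibitor preincubation in 50 mM sodium acetate pH 5.5. Product peak areas by LC-MS/MS gave inhibition; values average at least two independent runs.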

In order of falling IC50:
1. CC(C)CCC1(c2cccc(-c3cccnc3)c2)NC(=N)N(Cc2cccc(C(=O)N3Cc4cccnc4C3)c2)C1=O (stereo not drawn) [Compound 360, 3-[3-(5,7-dihydro-6H-pyrrolo[3,4-b]pyridin-6-ylcarbonyl)benzyl]-2-imino-5-(3-methylbutyl)-5-(3-pyridin-3-ylphenyl)imidazolidin-4-one]  95.1 nM
2. CC(C)CC1(c2ccccc2)NC(=N)N(Cc2ccc(C(F)(F)F)c(C(=O)N3CCC3)c2)C1=O (stereo not drawn) [Compound 179, 3-[3-(azetidin-1-ylcarbonyl)-4-(trifluoromethyl)benzyl]-2-imino-5-(2-methylpropyl)-5-phenylimidazolidin-4-one]  78.6 nM
3. N=C1NC(c2ccccc2)(c2ccccc2)C(=O)N1Cc1cccc(C(=O)N2CCN(c3ccccc3)CC2)c1 [Compound 324, 2-imino-5,5-diphenyl-3-{3-[(4-phenylpiperazin-1-yl)carbonyl]benzyl} imidazolidin-4-one]  57.7 nM
4. CCCC1(c2ccccc2)NC(=N)N(Cc2cccc(C(=O)N3Cc4cncnc4C3)c2)C1=O (stereo not drawn) [Compound 302, 3-[3-(5,7-dihydro-6H-pyrrolo[3,4-d]pyrimidin-6-ylcarbonyl)benzyl]-2-imino-5-phenyl-5-propylimidazolidin-4-one]  45.4 nM
5. COC(=O)N1CCN(C(=O)c2cc(F)cc(CN3C(=N)NC(c4ccccc4)(c4ccccc4)C3=O)c2)CC1 [Compound 298, methyl 4-({3-fluoro-5-[(2-imino-5-oxo-4,4-diphenylimidazolidin-1-yl)methyl]phenyl}carbonyl) piperazine-1-carboxylate]  43.5 nM
6. N=C1NC(c2ccccc2)(c2ccccc2)C(=O)N1Cc1cccc(C(=O)N2Cc3cccc(F)c3C2)c1 [Compound 194, 3-{3-[(4-fluoro-1,3-dihydro-2H-isoindol-2-yl)carbonyl]benzyl}-2-imino-5,5-diphenylimidazolidin-4-one]  35.7 nM
7. CC(C)CCC1(c2ccccc2)NC(=N)N(Cc2cccc(C(=O)N3CCN(C)C(=O)C3)c2)C1=O (stereo not drawn) [Compound 283, 4-[(3-{[2-imino-4-(3-methylbutyl)-5-oxo-4-phenylimidazolidin-1-yl]methyl}phenyl)carbonyl]-1-methylpiperazin-2-one]  31.8 nM
8. CC1CN(C(=O)c2cccc(CN3C(=N)NC(c4ccccc4)(c4ccccc4)C3=O)c2)Cc2nnc(C(F)(F)F)n21 (stereo not drawn) [Compound 282, 2-imino-3-(3-{[5-methyl-3-(trifluoromethyl)-5,6-dihydro[1,2,4]triazolo[4,3-a]pyrazin-7(8H)-yl]carbonyl}benzyl)-5,5-diphenylimidazolidin-4-one]  31.4 nM
9. N=C1NC(c2ccccc2)(c2ccccc2)C(=O)N1Cc1cccc(C(=O)N2Cc3ccc(C(F)(F)F)cc3C2)c1 [Compound 233, 2-imino-5,5-diphenyl-3-(3-{[5-(trifluoromethyl)-1,3-dihydro-2H-isoindol-2-yl]carbonyl}benzyl)-imidazolidin-4-one]  14 nM
10. CC(C)CC[C@]1(c2ccccc2)NC(=N)N([C@H](C)c2cccc(C(=O)N3Cc4cncnc4C3)c2)C1=O [Compound 216, 3-{(1R)-1-[3-(5,7-dihydro-6H-pyrrolo[3,4-d]pyrimidin-6-ylcarbonyl)phenyl]ethyl}-2-imino-5-(3-methylbutyl)-5-phenylimidazolidin-4-one]  10.2 nM
11. CNc1ncc2c(n1)CN(C(=O)c1cc(CN3C(=N)N[C@](CCCC(F)(F)F)(c4ccc(F)cc4)C3=O)ccc1C(F)(F)F)C2 [Compound 68, (5R)-5-(4-fluorophenyl)-2-imino-3-[3-{[2-(methylamino)-5,7-dihydro-6H-pyrrolo[3,4-d]pyrimidin-6-yl]carbonyl}-4-(trifluoromethyl)-benzyl]-5-(4,4,4-trifluorobutyl)-imidazolidin-4-one]  8.3 nM
12. N#Cc1ncc2c(n1)CN(C(=O)c1cccc(CN3C(=N)NC(c4ccc(F)cc4)(c4ccc(F)cc4)C3=O)c1)C2 [Compound 182, 6-[(3-{[4,4-bis(4-fluorophenyl)-2-imino-5-oxoimidazolidin-1-yl]methyl}phenyl)carbonyl]-6,7-dihydro-5H-pyrrolo[3,4-d]pyrimidine-2-carbonitrile]  1.7 nM
